This note sets out measurements from patent publication US8280710B2, “Method for determining thermal stability of collagen or collagen-like peptide” (University of Medicine and Dentistry of New Jersey, priority 2005, dated 2012).

Non-standard residues stand in square brackets, D forms with d. Residues, ends and D or L forms follow the SMILES beside them. No end group written: not given here. Hyp = O=C(O)[C@@H]1C[C@@H](O)CN1

Conditions in the first series: not given
As to the method: The propensity measurements for all 20 amino acid residues in the Xaa1 position in a Gly-Xaa1-Hyp context and all 20 amino acid residues in the Xaa2 position in a Gly-Pro-Xaa2 context were determined by measuring thermal stability of host-guest peptides (Persikov, et al. (2000) supra).
The Tm values of all host-guest peptides were measured under a set of standard conditions, with c=1 mg/ml in phosphate-buffered saline, pH 7.0, and with a heating rate average of 0.1° C./minute (Persikov, et al. (2004) supra).
For the compound Gly-Pro-Arg, the “decrease in stability relative to Gly-Pro-Hyp” value is roughly 0 °C.
Regarding Gly-Pro-Ala, the “decrease in stability relative to Gly-Pro-Hyp” value is 6.4 °C.
Still for that read-out and setting: next, Gly-Pro-[Hyp]: 21 °C.

The same series, now with this note: host-guest peptide, (Gly-Pro-Hyp)8 host; c=1 mg/ml in phosphate-buffered saline, pH 7.0, heating rate 0.1° C./minute.
With Gly-Pro-Pro, the “experimentally observed Tm of Gly-Xaa1-Xaa2 tripeptide unit in a triple helix” value (shortened to “experimentally observed Tm”) came to 45.5 °C.
Consider Gly-Gly-Ala, for which the “experimentally observed Tm” value was found to be 26.0 °C.
On the same count and under the same terms, in the case of Gly-Pro-Gly it was 32.9 °C; in that of Gly-Pro-Lys, 36.8 °C.
On to Gly-Ala-[Hyp], for which the “experimentally observed Tm” value came to 41.7 °C.
For the compound Gly-Pro-Arg, the “experimentally observed Tm” value worked out at 47.2 °C.
Consider Gly-Pro-Val, for which the “experimentally observed Tm” value amounted to 40.0 °C.
Take Gly-Pro-Ala: the “experimentally observed Tm” value is 40.9 °C.
For Gly-Pro-Ser, the “experimentally observed Tm” value was 35.0 °C.
The same measure, in the same setting: next, Gly-Gly-Phe: 19.7 °C; Gly-Pro-Gln: 41.3 °C; Gly-Pro-Glu: 39.7 °C.

The same series, now with this note: peptide of Table 3, defined standard conditions.
As to `CC(=O)NCC(=O)N1CCC[C@H]1C(=O)N[C@@H](CCCNC(=N)N)C(=O)NCC(=O)N[C@@H](CC(N)=O)C(=O)N[C@@H](CCCNC(=N)N)C(=O)NCC(=O)N[C@@H](CCC(=O)O)C(=O)N[C@@H](CCCNC(=N)N)C(=O)NCC(=O)N[C@@H](CO)C(=O)N[C@@H](CCC(=O)O)C(=O)NCC(=O)N[C@@H](CO)C(=O)N1C[C@H](O)C[C@H]1C(=O)NCC(=O)N[C@@H](Cc1c[nH]cn1)C(=O)N1C[C@H](O)C[C@H]1C(=O)NCC(=O)N[C@@H](CCC(N)=O)C(=O)N1C[C@H](O)C[C@H]1C(=O)NCC(=O)N1CCC[C@H]1C(=O)N1C[C@H](O)C[C@H]1C(=O)NCC(=O)N1CCC[C@H]1C(=O)N1C[C@H](O)C[C@H]1C(=O)NCC(=O)N[C@@H](C)C(=O)N1C[C@H](O)C[C@H]1C(=O)NCC(=O)N[C@H](C(N)=O)C(C)C` [T3-997, Ac-GPR-GNR-GER-GSE-GSO-GHO-GQO-GPO-GPO-GAO-GV-NH2] (Ac-GPRGNRGERGSEGS[Hyp]GH[Hyp]GQ[Hyp]GP[Hyp]GP[Hyp]GA[Hyp]GV-NH2), the “Tm^obs” value is less than 4 °C.
For `CC(=O)NCC(=O)N[C@@H](CCC(=O)O)C(=O)N[C@@H](CCCNC(=N)N)C(=O)NCC(=O)N[C@@H](CCC(=O)O)C(=O)N[C@@H](CCCNC(=N)N)C(=O)NCC(=O)N[C@@H](CCC(=O)O)C(=O)N[C@@H](CCCCN)C(=O)NCC(=O)N[C@@H](CCC(=O)O)C(=O)N[C@@H](CCCNC(=N)N)C(=O)NCC(=O)N[C@@H](CCC(=O)O)C(=O)N[C@@H](CCC(N)=O)C(=O)NCC(=O)N[C@@H](CCCNC(=N)N)C(=O)N[C@@H](CC(=O)O)C(=O)NCC(=O)N1CCC[C@H]1C(=O)N1C[C@H](O)C[C@H]1C(=O)NCC(=O)N1CCC[C@H]1C(=O)N1C[C@H](O)C[C@H]1C(=O)NCC(=O)N1CCC[C@H]1C(=O)N1C[C@H](O)C[C@H]1C(=O)NCC(=O)N1CCC[C@H]1C(=O)N1C[C@H](O)C[C@H]1C(=O)NCC(=O)N[C@H](C(N)=O)C(C)C` [T7-2058, Ac-GER-GER-GEK-GER-GEQ-GRD-(GPO)4-GV-NH2] (Ac-GERGERGEKGERGEQGRDGP[Hyp]GP[Hyp]GP[Hyp]GP[Hyp]GV-NH2), the “Tm^obs” value came to 23.2 °C.
For `CC(=O)NCC(=O)N[C@@H](C)C(=O)N[C@@H](CCCNC(=N)N)C(=O)NCC(=O)N1CCC[C@H]1C(=O)N[C@@H](C)C(=O)NCC(=O)N1CCC[C@H]1C(=O)N[C@@H](CCC(N)=O)C(=O)NCC(=O)N1CCC[C@H]1C(=O)N[C@@H](CCCNC(=N)N)C(=O)NCC(=O)N[C@@H](CC(=O)O)C(=O)N[C@@H](CCCCN)C(=O)NCC(=O)N[C@@H](CCC(=O)O)C(=O)N[C@H](C(=O)NCC(=O)N1CCC[C@H]1C(=O)N1C[C@H](O)C[C@H]1C(=O)NCC(=O)N1CCC[C@H]1C(=O)N1C[C@H](O)C[C@H]1C(=O)NCC(=O)N1CCC[C@H]1C(=O)N1C[C@H](O)C[C@H]1C(=O)NCC(=O)N1CCC[C@H]1C(=O)N1C[C@H](O)C[C@H]1C(=O)NCC(=O)N[C@H](C(N)=O)C(C)C)[C@@H](C)O` [T1-904, Ac-GAR-GPA-GPQ-GPR-GDK-GET-(GPO)4-GV-NH2] (Ac-GARGPAGPQGPRGDKGETGP[Hyp]GP[Hyp]GP[Hyp]GP[Hyp]GV-NH2), the “Tm^obs” value was 30.8 °C.
Same read-out and setting: next, `CC[C@H](C)[C@H](NC(=O)CNC(=O)[C@H](CC(C)C)NC(=O)[C@@H]1CCCN1C(=O)CNC(=O)[C@@H]1C[C@@H](O)CN1C(=O)[C@H](C)NC(=O)CNC(=O)[C@@H]1C[C@@H](O)CN1C(=O)[C@@H]1CCCN1C(=O)CNC(C)=O)C(=O)N[C@@H](C)C(=O)NCC(=O)N[C@H](C(=O)N[C@H](C(=O)NCC(=O)N[C@@H](C)C(=O)N[C@@H](CCCNC(=N)N)C(=O)NCC(=O)N[C@@H](CC(C)C)C(=O)N[C@@H](C)C(=O)NCC(=O)N1CCC[C@H]1C(=O)N1C[C@H](O)C[C@H]1C(=O)NCC(=O)N1CCC[C@H]1C(=O)N1C[C@H](O)C[C@H]1C(=O)NCC(=O)N1CCC[C@H]1C(=O)N1C[C@H](O)C[C@H]1C(=O)NCC(=O)N1CCC[C@H]1C(=O)N1C[C@H](O)C[C@H]1C(=O)NCC(=O)NCC(N)=O)[C@@H](C)O)[C@@H](C)CC` [T3-772, Ac-GPO-GAO-GPL-GIA-GIT-GAR-GLA-(GPO)4-GG-NH2] (Ac-GP[Hyp]GA[Hyp]GPLGIAGITGARGLAGP[Hyp]GP[Hyp]GP[Hyp]GP[Hyp]GG-NH2): less than 4 °C; `CC[C@H](C)[C@H](NC(=O)CNC(=O)[C@H](CO)NC(=O)[C@@H]1CCCN1C(=O)CNC(=O)[C@@H]1C[C@@H](O)CN1C(=O)[C@@H]1CCCN1C(=O)CNC(=O)[C@@H](NC(=O)[C@H](CCCNC(=N)N)NC(=O)CNC(=O)[C@H](C)NC(=O)[C@H](C)NC(=O)CNC(=O)[C@@H]1C[C@@H](O)CN1C(=O)[C@H](Cc1ccccc1)NC(=O)CNC(C)=O)[C@@H](C)O)C(=O)N[C@@H](CO)C(=O)NCC(=O)N1CCC[C@H]1C(=O)N1C[C@H](O)C[C@H]1C(=O)NCC(=O)N1CCC[C@H]1C(=O)N1C[C@H](O)C[C@H]1C(=O)NCC(=O)N1CCC[C@H]1C(=O)N1C[C@H](O)C[C@H]1C(=O)NCC(=O)N1CCC[C@H]1C(=O)N1C[C@H](O)C[C@H]1C(=O)NCC(=O)N[C@H](C(N)=O)C(C)C` [T1A2-697, Ac-GFO-GAA-GRT-GPO-GPS-GIS-(GPO)4-GV-NH2] (Ac-GF[Hyp]GAAGRTGP[Hyp]GPSGISGP[Hyp]GP[Hyp]GP[Hyp]GP[Hyp]GV-NH2): less than 4 °C.
